For data set [1], the system named is constitutive ERK phosphorylation in HCT-116 cells. Kind of data set: HCT-116 AlphaLISA SureFire pERK1/2 cellular assay. Format: cell-based, human. As to conditions: HCT116 cells, 2 hr; for IC50: Homo sapiens, HCT-116, read-out: pERK HCT116 (2 hr) Abs pIC50 (converted). Put shortly: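 Cells seeded overnight (30,000/well for 2 h, 15,000/well for 24 h), then dosed in 1% FBS medium with a 10-point series from 1 μM top, 1/3 log steps, for 2 or 24 h at 37 °C. Lysates read by AlphaLISA for Thr202/Tyr204 pERK1/2; absolute IC50 versus DMSO control.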
(Alpha assays give light when donor and acceptor beads are brought close together.)

Data set [2] deals with constitutive ERK phosphorylation in WiDr cells. Nature of the data set: WiDr AlphaLISA SureFire pERK1/2 cellular assay. It counts as cell-based, human. As to conditions: WiDr cells, 2 hr; for IC50: Homo sapiens, read-out: pERK WiDr (2 hr) Abs pIC50 (converted). As for the experimental part:
The human HCT-116 colorectal carcinoma cell line (ATCC CCL-247) endogenously expresses the KRAS^G13D mutation, which leads to constitutive activation of the MAP kinase pathway and phosphorylation of ERK. […] Assay read outs took place 2 or 24 hours after dosing with compounds. On the first day, HCT-116 cells were harvested, resuspended in growth medium (McCoys5A with Glutamax (Life Technologies 36600021) and 10% heat-inactivated fetal bovine serum (Sigma F9665)), and counted. Cells were plated in 100 μl per well in each well of a 96-well culture dish (Sigma CLS3598) to a final density of 30,000 (2 hr read) or 15,000 (24 hr read) cells per well and incubated over night at 37° C. and 5% CO2. On day 2, the growth medium was exchanged for dosing medium (McCoys5A with Glutamax (Life Technologies 36600021) and 1% heat-inactivated fetal bovine serum (Sigma F9665)) and the cells were dosed with compounds to produce a 10-point dose response, where the top concentration was 1 μM and subsequent concentrations were at 1/3 log dilution intervals. A matched DMSO control was included. The cells were subsequently incubated for either 2 or 24 hours at 37° C. and 5% CO2. After incubation, media was removed and the cells were incubated with lysis buffer containing phosphatase inhibitors for 15 minutes at room temperature. Cell lysates were transferred to a 12 area 96 well white Optiplate™ (Perkin Elmer 6005569) and incubated with anti-mouse IgG acceptor beads, a biotinylated anti-ERK1/2 rabbit antibody recognizing both phosphorylated and non-phosphorylated ERK1/2, a mouse antibody targeted to the Thr202/Tyr204 epitope and recognizing phosphorylated ERK proteins only, and streptavidin-coated donor beads. The biotinylated antibody binds to the streptavidin-coated donor beads and the phopsho-ERK1/2 antibody binds to the acceptor beads. Plates were read on an EnVision reader (Perkin Elmer) and excitation of the beads at 680 nm with a laser induced the release of singlet oxygen molecules from the donor beads that trigger energy transfer to the acceptor beads in close proximity, producing a signal that can be measured at […]. Both antibodies bound to phosphorylated ERK proteins, bringing the donor and acceptor beads into close proximity. All data were analyzed using the Dotmatics or GraphPad Prism software packages. Inhibition of ERK phosphorylation was assessed by determination of the absolute IC50 value, which is defined as the concentration of compound required to decrease the level of phosphorylated ERK proteins by 50% when compared to DMSO control.
WiDr AlphaLISA SureFire pERK1/2 Cellular Assay
The human WiDr colorectal adenocarcinoma cell line (ATCC CCL-218) endogenously expresses the BRAF^V600E mutation, which leads to constitutive activation of the MAP kinase pathway and phosphorylation of ERK. […] The main procedure is essentially the same as for HCT-116 cells (above), with the following adjustments to the growth medium (Eagle's Minimum Essential Medium (Sigma M2279) with 1× Glutamax (Life Technologies 35050038), 1× Sodium-Pyruvate (Sigma S8636), and 10% heat-inactivated fetal bovine serum (Sigma F9665)), the dosing medium (Eagle's Minimum Essential Medium (Sigma M2279) with 1× Glutamax (Life Technologies 35050038), 1× Sodium-Pyruvate (Sigma S8636), and 1% heat-inactivated fetal bovine serum (Sigma F9665)), and the seeding densities (2 hr: 50,000 cells per well; 24 hr: 35,000 cells per well). Moreover, the compounds were dosed in 1/2 log dilution intervals with the top concentration of 10 μM.

A short description of data set [3]: Microsomal stability assay, mouse liver microsomes (MLM). It counts as in vitro ADME. As to conditions: 0.5 mg/mL protein, 1 μM substrate. An outline of the steps:
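Half-life and CLint come from the ln(% remaining)–time slope, with remaining compound quantified by LC-MS/MS after ice-cold solvent quench of timed samples. Incubations used 1 μM test compound and 0.5 mg·mL^−1 human or mouse liver microsomal protein at 37° C.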
On the technique in general: Liver microsomes are vesicles of endoplasmic reticulum, rich in cytochrome P450 enzymes.

The structures appear in SMILES notation. Read-outs that look alike come from different tables or passages of the source.

In general, microsomal CLint refers to a measure of how fast metabolising enzymes remove a compound, apart from limits set by blood flow. As for `O=C(Nc1cc(Oc2ccc3c(c2)CC(c2nc(-c4ccccc4)c[nH]2)CO3)ccn1)C1CC1` (stereo not drawn) [Compound 45, N-[4-[3-(4-phenyl-1H-imidazol-2-yl)chroman-6-yl]oxy-2-pyridyl]cyclopropanecarboxamide], the IC50 in data set [1] (absolute IC50) was 27.5 nM; in data set [2] (absolute IC50), 66.1 nM. Besides, the microsomal CLint at 1 μM in data set [3] was found to be 277 µL/min/mg.

For the compound `O=C1CCc2c(Oc3ccc4c(c3)CN(C(=O)Nc3ccc(C(F)(F)F)cc3)CC4)ccnc2N1` [Compound 47], the results for the IC50 in data set [1] (absolute IC50) and in data set [2] (absolute IC50) were 69.2 nM and 117 nM, respectively. For the same compound, the microsomal CLint at 1 μM in data set [3] is 32.5 µL/min/mg.

Consider `O=C1CCc2c(Oc3ccc4c(c3)CN(C(=O)Nc3cccc(C(F)(F)F)c3)CC4)ccnc2N1` [Compound 50], for which the IC50 was 46.8 nM in data set [1] (absolute IC50) and 97.7 nM in data set [2] (absolute IC50). The microsomal CLint at 1 μM in data set [3] stood at 79 µL/min/mg.

Take `O=C1CCc2c(Oc3ccc4c(c3)CC(c3nc(-c5ccnc(C(F)F)c5)c[nH]3)CO4)ccnc2N1` (stereo not drawn) [Compound 101, 5-[3-[4-[2-(difluoromethyl)-4-pyridyl]-1H-imidazol-2-yl]chroman-6-yl]oxy-3,4-dihydro-1H-1,8-naphthyridin-2-one]: the results for the IC50 in data set [1] (Abs) and in data set [2] (Abs) were 132 nM and 182 nM, respectively. Besides, the microsomal CLint at 1 μM in data set [3] (37° C.) worked out at 15.2 µL/min/mg.

As for `O=C1CCc2c(Oc3ccc4c(c3)CC(c3nc(-c5cncc(C(F)(F)F)c5)c[nH]3)CO4)ccnc2N1` (stereo not drawn) [Compound 103, 5-[3-[4-[5-(trifluoromethyl)-3-pyridyl]-1H-imidazol-2-yl]chroman-6-yl]oxy-3,4-dihydro-1H-1,8-naphthyridin-2-one], the IC50 in data set [1] (Abs) was 240 nM; in data set [2] (Abs), 269 nM. For the same compound, the microsomal CLint at 1 μM in data set [3] (37° C.) turned out to be 4.4 µL/min/mg.

As for `COc1cc(-c2c[nH]c(C3COc4ccc(Oc5ccnc6c5CCC(=O)N6)cc4C3)n2)ccn1` (stereo not drawn) [Compound 104], the “pERK HCT116 (2 hr) Abs pIC50” value in data set [1] (Abs) is given as 6.50. The “pERK WiDr (2 hr) Abs pIC50” value in data set [2] (Abs) was 5.96. Moreover, in data set [3] (37° C.), the “MLM (CLint)” value was 23 µL/min/mg.

As for `O=C1CCc2c(Oc3ccc4c(c3)CC(c3nc(-c5cncc(C(F)F)c5)c[nH]3)CO4)ccnc2N1` (stereo not drawn) [Compound 105, 5-[3-[4-[5-(difluoromethyl)-3-pyridyl]-1H-imidazol-2-yl]chroman-6-yl]oxy-3,4-dihydro-1H-1,8-naphthyridin-2-one], the IC50 in data set [1] (Abs) is 178 nM; in data set [2] (Abs), 269 nM. In addition, in data set [3] (37° C.), the microsomal CLint at 1 μM was 2.1 µL/min/mg.

Turning to `Cc1cc(-c2c[nH]c(C3COc4ccc(Oc5ccnc6c5CCC(=O)N6)cc4C3)n2)n(C)n1` (stereo not drawn) [Compound 106, 5-[3-[4-(2,5-dimethylpyrazol-3-yl)-1H-imidazol-2-yl]chroman-6-yl]oxy-3,4-dihydro-1H-1,8-naphthyridin-2-one], the IC50 is 275 nM in data set [1] (Abs) and 589 nM in data set [2] (Abs). Also, the microsomal CLint at 1 μM in data set [3] (37° C.) stood at 17.1 µL/min/mg.

For the compound `Cn1nc(C(F)(F)F)cc1-c1c[nH]c(C2COc3ccc(Oc4ccnc5c4CCC(=O)N5)cc3C2)n1` (stereo not drawn) [Compound 107, 5-[3-[4-[2-methyl-5-(trifluoromethyl)pyrazol-3-yl]-1H-imidazol-2-yl]chroman-6-yl]oxy-3,4-dihydro-1H-1,8-naphthyridin-2-one], the IC50 in data set [1] (Abs) is 191 nM; in data set [2] (Abs), 209 nM. In addition, the microsomal CLint at 1 μM in data set [3] (37° C.) turned out to be 12.5 µL/min/mg.

Turning to `Cc1ccc(-c2c[nH]c(C3COc4ccc(Oc5ccnc6c5CCC(=O)N6)cc4C3)n2)s1` (stereo not drawn) [Compound 110], the IC50 in data set [1] (Abs) was 89.1 nM; in data set [2] (Abs), 70.8 nM. Moreover, the microsomal CLint at 1 μM in data set [3] (37° C.) worked out at 55.5 µL/min/mg.

With `CCc1cc(-c2c[nH]c(C3COc4ccc(Oc5ccnc6c5CCC(=O)N6)cc4C3)n2)n(C)n1` (stereo not drawn) [Compound 111], the IC50 was 219 nM in data set [1] (Abs) and 324 nM in data set [2] (Abs). For the same compound, the microsomal CLint at 1 μM in data set [3] (37° C.) is 26.9 µL/min/mg.

In the case of `Cc1cc(-c2c[nH]c(C3COc4ccc(Oc5ccnc6c5CCC(=O)N6)cc4C3)n2)n(C(C)C)n1` (stereo not drawn) [Compound 112, 5-[3-[4-(2-isopropyl-5-methyl-pyrazol-3-yl)-1H-imidazol-2-yl]chroman-6-yl]oxy-3,4-dihydro-1H-1,8-naphthyridin-2-one], the IC50 was > 1000 nM in data set [1] (Abs) and 1000 nM in data set [2] (Abs). The microsomal CLint at 1 μM in data set [3] (37° C.) was 55.5 µL/min/mg.

Consider `CCc1cc(-c2c[nH]c(C3COc4ccc(Oc5ccnc6c5CCC(=O)N6)cc4C3)n2)n(C2CC2)n1` (stereo not drawn) [Compound 113, 5-[3-[4-(2-cyclopropyl-5-ethyl-pyrazol-3-yl)-1H-imidazol-2-yl]chroman-6-yl]oxy-3,4-dihydro-1H-1,8-naphthyridin-2-one], for which the IC50 in data set [1] (Abs) was > 1000 nM; in data set [2] (Abs), 1480 nM. In addition, in data set [3] (37° C.), the microsomal CLint at 1 μM came out at 38.2 µL/min/mg.

As for `Cc1cc(-c2c[nH]c(C3COc4ccc(Oc5ccnc6c5CCC(=O)N6)cc4C3)n2)n(C2CC2)n1` (stereo not drawn) [Compound 114, 5-[3-[4-(2-cyclopropyl-5-methyl-pyrazol-3-yl)-1H-imidazol-2-yl]chroman-6-yl]oxy-3,4-dihydro-1H-1,8-naphthyridin-2-one], the IC50 in data set [1] (Abs) is > 1000 nM; in data set [2] (Abs), 1350 nM. Moreover, in data set [3] (37° C.), the microsomal CLint at 1 μM came out at 12.6 µL/min/mg.

With `Cc1cc(-c2c[nH]c(C3COc4ccc(Oc5ccnc6c5CCC(=O)N6)cc4C3)n2)ccn1` (stereo not drawn) [Compound 117, 5-[3-[4-(2-methyl-4-pyridyl)-1H-imidazol-2-yl]chroman-6-yl]oxy-3,4-dihydro-1H-1,8-naphthyridin-2-one], the IC50 in data set [1] (Abs) was 107 nM; in data set [2] (Abs), 589 nM. Also, in data set [3] (37° C.), the microsomal CLint at 1 μM was 13.4 µL/min/mg.

Regarding `CCc1cc(-c2c[nH]c(C3COc4ccc(Oc5ccnc6c5CCC(=O)N6)cc4C3)n2)ccn1` (stereo not drawn) [Compound 118, 5-[3-[4-(2-ethyl-4-pyridyl)-1H-imidazol-2-yl]chroman-6-yl]oxy-3,4-dihydro-1H-1,8-naphthyridin-2-one], the IC50 in data set [1] (Abs) is 269 nM; in data set [2] (Abs), 398 nM. Also, the microsomal CLint at 1 μM in data set [3] (37° C.) came to 40 µL/min/mg.

As to `COc1csc(-c2c[nH]c(C3COc4ccc(Oc5ccnc6c5CCC(=O)N6)cc4C3)n2)c1` (stereo not drawn) [Compound 122, 5-[3-[5-(4-methoxy-2-thienyl)-1H-imidazol-2-yl]chroman-6-yl]oxy-3,4-dihydro-1H-1,8-naphthyridin-2-one], the IC50 in data set [1] (Abs) was 132 nM; in data set [2] (Abs), 355 nM. Moreover, the intrinsic clearance (microsomal CLint) at 1 μM in data set [3] (37° C.) amounted to 70.8 µL/min/mg.

Consider `COc1ccsc1-c1c[nH]c(C2COc3ccc(Oc4ccnc5c4CCC(=O)N5)cc3C2)n1` (stereo not drawn) [Compound 123], for which the values for the IC50 in data set [1] (Abs) and in data set [2] (Abs) were 63.1 nM and 33.9 nM, respectively. The microsomal CLint at 1 μM in data set [3] (37° C.) stood at 126 µL/min/mg.

With `CCn1nc(C)cc1-c1c[nH]c(C2COc3ccc(Oc4ccnc5c4CCC(=O)N5)cc3C2)n1` (stereo not drawn) [Compound 124, 5-[3-[4-(2-ethyl-5-methyl-pyrazol-3-yl)-1H-imidazol-2-yl]chroman-6-yl]oxy-3,4-dihydro-1H-1,8-naphthyridin-2-one], the IC50 in data set [1] (Abs) is 347 nM; in data set [2] (Abs) it was 661 nM. For the same compound, the microsomal CLint at 1 μM in data set [3] (37° C.) is 28.2 µL/min/mg.
